Assay: excess molar enthalpy (molar enthalpy of mixing); xn = mol fraction of the nth substance listed
Settings: 101.3 kPa, Liquid, Flow calorimetry

CC(=O)c1ccccc1 [acetophenone] + C1CCCCC1
excess molar enthalpy [kcal/mol]
Settings | 298.2 K | 313.2 K | 328.2 K | 338.2 K | 348.2 K
x1 = 0.1004 | 0.18 | 0.19 | 0.193 | 0.195 | 0.196
x1 = 0.1999 | 0.264 | 0.285 | 0.295 | 0.302 | 0.304
x1 = 0.2999 | 0.305 | 0.336 | 0.353 | 0.362 | 0.364
x1 = 0.3499 | 0.317 | 0.35 | 0.368 | 0.377 | 0.379
x1 = 0.4002 | 0.323 | 0.356 | 0.374 | 0.385 | 0.388
x1 = 0.4497 | 0.323 | 0.357 | 0.375 | 0.386 | 0.387
x1 = 0.4996 | 0.32 | 0.352 | 0.37 | 0.378 | 0.382
x1 = 0.5498 | 0.312 | 0.343 | 0.359 | 0.367 | 0.371
x1 = 0.6005 | 0.299 | 0.327 | 0.341 | 0.349 | 0.353
x1 = 0.6503 | 0.282 | 0.307 | 0.319 | 0.326 | 0.329
x1 = 0.7004 | 0.261 | 0.28 | 0.289 | 0.296 | 0.299
x1 = 0.8005 | 0.2 | 0.209 | 0.213 | 0.218 | 0.221
x1 = 0.8995 | 0.114 | 0.117 | 0.118 | 0.121 | 0.122

CC(=O)c1ccccc1 [acetophenone] + CC(C)CO
excess molar enthalpy [kcal/mol]
Settings | 298.2 K | 313.2 K | 328.2 K | 338.2 K | 348.2 K
x1 = 0.1005 | 0.166 | 0.192 | 0.219 | 0.223 | 0.225
x1 = 0.201 | 0.263 | 0.312 | 0.356 | 0.367 | 0.369
x1 = 0.301 | 0.327 | 0.39 | 0.449 | 0.46 | 0.462
x1 = 0.3512 | 0.346 | 0.414 | 0.476 | 0.488 | 0.491
x1 = 0.4014 | 0.361 | 0.432 | 0.494 | 0.507 | 0.509
x1 = 0.4516 | 0.371 | 0.443 | 0.504 | 0.516 | 0.519
x1 = 0.5017 | 0.375 | 0.446 | 0.505 | 0.516 | 0.52
x1 = 0.5518 | 0.373 | 0.443 | 0.498 | 0.508 | 0.51
x1 = 0.6016 | 0.366 | 0.432 | 0.482 | 0.489 | 0.492
x1 = 0.6513 | 0.354 | 0.415 | 0.456 | 0.463 | 0.467
x1 = 0.7008 | 0.335 | 0.389 | 0.423 | 0.426 | 0.428
x1 = 0.8016 | 0.271 | 0.305 | 0.324 | 0.325 | 0.329
x1 = 0.901 | 0.164 | 0.177 | 0.183 | 0.185 | 0.187

CC(=O)c1ccccc1 [acetophenone] + CCCCCC
excess molar enthalpy [kcal/mol]
Settings | 298.2 K | 313.2 K | 328.2 K
x1 = 0.0997 | 0.169 | 0.173 | 0.175
x1 = 0.2 | 0.263 | 0.277 | 0.285
x1 = 0.2994 | 0.306 | 0.329 | 0.342
x1 = 0.3503 | 0.317 | 0.343 | 0.357
x1 = 0.4006 | 0.321 | 0.349 | 0.365
x1 = 0.4503 | 0.321 | 0.35 | 0.367
x1 = 0.4995 | 0.316 | 0.346 | 0.363
x1 = 0.5494 | 0.308 | 0.336 | 0.353
x1 = 0.5999 | 0.295 | 0.319 | 0.337
x1 = 0.6499 | 0.278 | 0.293 | 0.313
x1 = 0.7005 | 0.257 | 0.265 | 0.277
x1 = 0.8 | 0.2 | 0.203 | 0.207
x1 = 0.8995 | 0.113 | 0.115 | 0.117

CC(=O)c1ccccc1 [acetophenone] + CCCCCCC
excess molar enthalpy [kcal/mol]
Settings | 298.2 K | 313.2 K | 328.2 K | 338.2 K | 348.2 K
x1 = 0.0999 | 0.173 | 0.177 | 0.183 | 0.184 | 0.184
x1 = 0.2002 | 0.271 | 0.285 | 0.298 | 0.301 | 0.302
x1 = 0.3005 | 0.313 | 0.341 | 0.361 | 0.369 | 0.369
x1 = 0.3498 | 0.323 | 0.354 | 0.378 | 0.388 | 0.389
x1 = 0.4007 | 0.326 | 0.362 | 0.388 | 0.398 | 0.4
x1 = 0.4504 | 0.327 | 0.362 | 0.391 | 0.402 | 0.404
x1 = 0.5003 | 0.322 | 0.358 | 0.387 | 0.399 | 0.401
x1 = 0.5504 | 0.313 | 0.348 | 0.378 | 0.39 | 0.39
x1 = 0.6006 | 0.301 | 0.334 | 0.362 | 0.373 | 0.374
x1 = 0.6496 | 0.285 | 0.316 | 0.342 | 0.352 | 0.354
x1 = 0.6998 | 0.264 | 0.291 | 0.315 | 0.323 | 0.326
x1 = 0.8001 | 0.208 | 0.224 | 0.241 | 0.245 | 0.246
x1 = 0.8999 | 0.121 | 0.125 | 0.135 | 0.136 | 0.138

CC(=O)c1ccccc1 [acetophenone] + CCCCCO
excess molar enthalpy [kcal/mol]
Settings | 298.2 K | 313.2 K | 328.2 K | 338.2 K | 348.2 K
x1 = 0.1003 | 0.151 | 0.174 | 0.186 | 0.19 | 0.192
x1 = 0.1998 | 0.24 | 0.283 | 0.311 | 0.324 | 0.328
x1 = 0.2998 | 0.298 | 0.356 | 0.394 | 0.412 | 0.417
x1 = 0.3497 | 0.316 | 0.378 | 0.421 | 0.44 | 0.447
x1 = 0.4001 | 0.33 | 0.396 | 0.441 | 0.461 | 0.468
x1 = 0.4496 | 0.338 | 0.407 | 0.453 | 0.473 | 0.48
x1 = 0.4994 | 0.343 | 0.411 | 0.457 | 0.477 | 0.484
x1 = 0.5497 | 0.342 | 0.41 | 0.453 | 0.473 | 0.478
x1 = 0.6004 | 0.336 | 0.402 | 0.442 | 0.459 | 0.464
x1 = 0.6501 | 0.325 | 0.386 | 0.422 | 0.438 | 0.441
x1 = 0.7003 | 0.307 | 0.363 | 0.393 | 0.408 | 0.41
x1 = 0.8004 | 0.252 | 0.291 | 0.306 | 0.315 | 0.318
x1 = 0.8995 | 0.156 | 0.174 | 0.177 | 0.182 | 0.184

CC(=O)c1ccccc1 [acetophenone] + CCCCO
excess molar enthalpy [kcal/mol]
Settings | 298.2 K | 313.2 K | 328.2 K | 338.2 K | 348.2 K
x1 = 0.0996 | 0.149 | 0.172 | 0.187 | 0.193 | 0.197
x1 = 0.2005 | 0.241 | 0.283 | 0.314 | 0.326 | 0.335
x1 = 0.3001 | 0.298 | 0.357 | 0.394 | 0.412 | 0.423
x1 = 0.3501 | 0.317 | 0.379 | 0.422 | 0.44 | 0.452
x1 = 0.4002 | 0.331 | 0.396 | 0.441 | 0.46 | 0.472
x1 = 0.4504 | 0.34 | 0.406 | 0.452 | 0.471 | 0.483
x1 = 0.5005 | 0.344 | 0.41 | 0.456 | 0.473 | 0.485
x1 = 0.5506 | 0.343 | 0.407 | 0.452 | 0.469 | 0.479
x1 = 0.6006 | 0.337 | 0.399 | 0.44 | 0.455 | 0.463
x1 = 0.6504 | 0.326 | 0.382 | 0.419 | 0.432 | 0.44
x1 = 0.7001 | 0.309 | 0.358 | 0.391 | 0.4 | 0.407
x1 = 0.8 | 0.252 | 0.285 | 0.305 | 0.311 | 0.316
x1 = 0.9001 | 0.154 | 0.17 | 0.176 | 0.18 | 0.184

CC(=O)c1ccccc1 [acetophenone] + CCOC(C)=O
excess molar enthalpy [kcal/mol]
Settings | 298.2 K | 313.2 K | 328.2 K
x1 = 0.1 | -0.00292 | -0.00284 | -0.0028
x1 = 0.2004 | -0.00509 | -0.00495 | -0.0049
x1 = 0.2999 | -0.0066 | -0.00636 | -0.00626
x1 = 0.3501 | -0.00707 | -0.00679 | -0.00674
x1 = 0.4002 | -0.00739 | -0.00703 | -0.00693
x1 = 0.4503 | -0.00755 | -0.00715 | -0.00698
x1 = 0.5002 | -0.00755 | -0.0071 | -0.00688
x1 = 0.5997 | -0.00717 | -0.00667 | -0.00638
x1 = 0.7005 | -0.00629 | -0.00574 | -0.0054
x1 = 0.8004 | -0.00483 | -0.0043 | -0.00392
x1 = 0.9003 | -0.00246 | -0.00234 | -0.00196

CC(=O)c1ccccc1 [acetophenone] + O
excess molar enthalpy [kcal/mol]
Settings | 298.2 K | 313.2 K | 328.2 K | 338.2 K | 348.2 K
x1 = 0.1002 | 0.0169 | 0.0217 | 0.0313 | 0.0342 | 0.0399
x1 = 0.1997 | 0.033 | 0.0424 | 0.0592 | 0.0608 | 0.0772
x1 = 0.3001 | 0.0492 | 0.0636 | 0.0876 | 0.095 | 0.115
x1 = 0.3991 | 0.0652 | 0.0846 | 0.116 | 0.124 | 0.153
x1 = 0.5003 | 0.0816 | 0.106 | 0.145 | 0.156 | 0.192
x1 = 0.5991 | 0.0975 | 0.127 | 0.173 | 0.188 | 0.23
x1 = 0.6986 | 0.113 | 0.148 | 0.201 | 0.221 | 0.269
x1 = 0.7987 | 0.129 | 0.168 | 0.229 | 0.253 | 0.308
x1 = 0.8515 | 0.138 | 0.175 | 0.24 | 0.245 | 0.274
x1 = 0.8967 | 0.141 | 0.16 | 0.189 | 0.192 | 0.204
x1 = 0.9534 | 0.0718 | 0.0793 | 0.0926 | 0.0937 | 0.1
